Test system: gut microbiome species
Test: Shotgun metagenomics of stool: relative abundance of gut microbiome species after OCA treatment
Type: in vivo, human
Details: for OCA Response: abundance change of the bacterial species, subjects treated with 10 mg of OCA
Description: Twenty-four eligible subjects were enrolled and randomized to 1 of 3 treatment groups (5 mg, 10 mg, or 25 mg) in a treatment ratio of 1:1:1. The study comprised single dose and multiple dose phases. The randomized dose administered in the single dose phase was the subject's dose level for the multiple dose phase. A single dose of OCA (5 mg, 10 mg, or 25 mg) was administered on Day 1. On Day 4, the multiple dose phase began at the same dose level (5 mg, 10 mg, or 25 mg), with subjects receiving OCA once daily for 14 days. The last dose was given to subjects on Day 17. Subjects remained at the inpatient trial site from Day 0 until the morning of Day 30, and returned to the study site for collection of a sample on Days 35, 37, 39, and 44.
Stool specimens for microbiota genome testing were collected up to 2 days prior to submitting them on Day 0, on Day 15, 16, or 17 prior to submitting them on the same day, and up to 2 days prior to submitting them on Day 37. One Day 1, pre-dose blood samples were collected, and serial blood samples were obtained from Day 1 to Day 3 following administration on Day 1 (see Table 1). Multiple dose phase started on Day 4 and lasted through Day 17, during which subjects received once daily doses of OCA (5 mg, 10 mg, or 25 mg) and pre-dose blood samples were drawn (see Table 1).
For microbiome analysis, stool samples were collected on day 0, day 15 or 16, and day 37. FGF19 and C4
The bacterial abundance on species level was generated from MetaPhlAn2 (Segata et al., Nat. Methods 9, 811 (2012)). 341 species were identified from the dataset.
The adaptors, human reads contamination, and low quality sequences were removed from the raw sequencing data using software kneaddata. Trimmomatic (Bolger et al., Bioinformatics 30, 2114 (2014)) was invoked by kneaddata for removing adaptor sequence, trimming low quality bases, and removing low quality reads. Bowtie (Langmead and Salzberg, Nat. Methods 9, 357 (2012)) was invoked by kneaddata for human reads detection. • Removing sequencing noise: For each sample, if the abundance of one species was smaller than 0.05% of the maximum abundance of all species in the sample, it was considered as noise, and the abundance of this species in the sample was set as 0. • Imputing missing value (i.e. Os): Because log 2 transformation was needed in further analysis, adjustment factor (e) was added to the abundance matrix, where e equals 50% of the minimum non-zero abundance value of all samples. • Removing low abundance species: A species was removed if the relative abundance was lower than 0.1% in >=95% of samples. 128 species was kept for further analysis.
• Species differential abundance analysis: The time effect of OCA treatment was studied on three OCA dose groups separately using Friedman rank test. The dose effect of OCA treatment was studied on three time point separately, and Kruskal-Wallis test was used. • Gene differential abundance analysis: For each of the most varying genes, repeated-measure ANOVA was performed to study the time effect and OCA dose effect on gene abundance change.
An open label, randomized, single dose and multiple dose trial to assess the pharmacokinetics of obeticholic acid (OCA) in 24 healthy male or female subjects aged 18 to 55 years receiving 5, 10 or 25 mg OCA was conducted. Stool specimens for microbiota genome testing were collected by subjects up to 2 days before Day 0 (T0), […] (T1), and Day 37 (T2). […]

SMILES: CC[C@H]1[C@@H](O)[C@@H]2[C@H](CC[C@]3(C)[C@@H]([C@H](C)CCC(=O)O)CC[C@@H]23)[C@@]2(C)CC[C@@H](O)C[C@@H]12 [OCA, 3α,7α-dihydroxy-6α-ethyl-5β-cholan-24-oic acid]
- time-dependent effect of OCA on Streptococcus thermophilus abundance in fecal microbiota (10 mg OCA group): greatest increase
- abundances of all Gram-negative bacteria following OCA treatment (10 mg OCA, Table 15): decreased
- numbers of Lactobacillus casei paracasei and Streptococcus thermophilus upon discontinuation of OCA (OCA 5 mg, 10 mg, 25 mg): decreased
- abundance of Lactobacillus casei paracasei and Streptococcus thermophilus in stool over time (OCA 5 mg, 10 mg, 25 mg, Friedman rank test, p<0.05): differentially abundant over time in all three OCA dosage groups
- OCA Response (Alistipes_putredinis): Decrease
- OCA Response (Lactococcus_lactis): Increase
- OCA Response (Subdoligranulum_unclassified): Equivocal
- low abundance gram positive organisms with the use of OCA (day 16): consistent increase
- OCA dose effect on abundance of Bacteroides uniformis and Streptococcus thermophilus (day 16 and day 37, Kruskal-Wallis test, p<0.05): significantly different among dose groups
- low abundance gram positive organisms after OCA was discontinued (day 37): decreased to baseline
- abundances of Gram-positive bacterial genera following OCA treatment (with two exceptions, 10 mg OCA, Table 15): increased abundances

Reference: patent US20200164005A1, “PHARMACEUTICAL COMPOSITIONS OF A BILE ACID DERIVATIVE AND MICROBIOME AND USES THEREOF” (Intercept Pharmaceuticals, Inc., priority 2017, published 2020)
